Laboratory results reported in article PMC6072469, “Small molecule piperazinyl-benzimidazole antagonists of the gonadotropin-releasing hormone (GnRH) receptor” (MedChemComm, 2017).
≈ marks a conversion by molar mass, not a printed value. Read-outs that look alike come from different tables or passages of the source. Blank lines part the entries; values can stand above or below the compound they belong to.

What was measured:
hGnRH receptors = target: T1, hGnRH receptors (Homo sapiens, UniProt P30968); assay: Functional cell assay (Ca2+ FLIPR): inhibition of receptor activation by LHRH/GnRH; assay type: cell-based; details: for potency to inhibit GnRH receptor (in words): compared with 1 / desired range
T1 construct: host or cells: HEK293T (division-arrested, stably expressing)
T1 sequence (P30968 1-328): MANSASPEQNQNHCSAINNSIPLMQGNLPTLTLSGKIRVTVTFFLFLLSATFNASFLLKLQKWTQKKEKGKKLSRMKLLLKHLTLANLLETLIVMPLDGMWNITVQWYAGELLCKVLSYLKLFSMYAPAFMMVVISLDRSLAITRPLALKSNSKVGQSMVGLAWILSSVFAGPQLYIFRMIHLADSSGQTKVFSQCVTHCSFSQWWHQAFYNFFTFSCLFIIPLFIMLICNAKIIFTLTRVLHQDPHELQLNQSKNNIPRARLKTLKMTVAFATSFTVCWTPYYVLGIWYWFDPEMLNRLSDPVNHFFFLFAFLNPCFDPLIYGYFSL
Protocol: Compounds insoluble in DMSO at 10 mM were dropped from testing. […] The lead compound WAY207024 (1) was included as a reference in the cell assay. All IC50 values obtained for each test compound in the concentration dependent screening were converted into Ki values using the equation of Cheng and Prusoff.[15] […]
DMEM (Corning Hanks’ Balanced PBS +/- IBMX 1 mM IBMX in Cellgro 10- 013- Salt Solution (TBD by PBS
CV): 90%; (HBSS) titration)
_FBS (Seradigm with 20 mM
Plating cell density for Plating cell density for Forskolin concentration 384-well microplate 384-well microplate for cAMP assay (Gαi-for Ca++ assay for cAMP assay coupled) immediately immediately 5-15 μM without IBMX;
Assay preparations, pretreatment of cells and seeding on 384 well plates.
Thawing Medium was prepared by mixing commercially available stock solutions of DMEM (Corning Cellgro 10-013-CV) and Fetal Bovine Serum, FBS (Seradigm Catalog #1500-500) in a volume ratio of 9:1.
Vials containing 4 x 10^6 frozen cells were transferred from liquid nitrogen to a 37 °C water bath and gently warmed while submerged under water. Immediately after the frozen cells are thawed, the cryovial was removed from the water bath, dried and cleaned with 70% alcohol. Using a 2 mL serological pipette, the cell suspension was transferred to a 15-mL conical centrifuge tube containing 5 mL DMEM pre-warmed to r.t.. The mixture was triturated gently with the same 2 mL serological pipette without causing any air bubbles.
The 15-mL tube was spun at 200x g for 5 minutes at r.t. the supernatant was removed and cells were resuspended in 11 mL of DMEM complete to obtain a cell concentration of 360000 cells/ml. Based on previous titration of cell densitites, 9000 cells were seeded per well and the plate was incubated over night at 37 °C/CO 2.
1. Loading buffer from MD is prepared. Dissolve 1 vial of dye in 10 mL buffer from kit.
2. HBBS/Hepes (1x with Ca/Mg)/20 mM Hepes, pH 7.4 with 0.1 % BSA to be used for dilution of the agonist
3. 60 mL HBBS/20 mM Hepes to be added to test compounds
The day of the assay the seeding medium was carefully decanted from each well by tilting the plate. 25 µl loading buffer containing the Ca 2+ sensing dye was added to each well. Subsequently, 20 µL of HBBS/Hepes were added to each well containing dye. Plates were incubated at 37 °C for 45 min, after which 5 µL antagonist solution (diluted in HBBS/HEPES) were dispensed into each well using a Hamilton 384 well head followed by incubation at r.t. for 15 min. After 15 min agonist was added on the FLIPR platform and the fluorescence signal […]
First sequence: 2 s, 30 sample. (Baseline)
Second sequence: 2 s, 120 sample. (Agonist stimulation)
12.5 µL addiiton, after sample 30.
Addition speed: 20 µl/sec
Compound concentration: 5x, add 12.5 µl of each
One minute baseline stabilisation, 240 s measurement
Compound plate preparation:
Agonist stock solution: Luteinizing hormone releasing hormone, 10 mM in water […]
Dissolve 5 mg in 423 µL of water, store at -80 °C until use.
Prepare a full plate with only agonist at experimental EC50 dose as reported before on FLIPR platform:
Dilute 3,225 µL in 25 mL HBSS/Hepes buffer with 0.1 % BSA
Test compounds (antagonists)
Sample to be analysed (>95% pure by HPLC/microanalysis, fully characterised).
DMSO for cell culture (reference free, anhydrous) stored in desiccator 1: Dimethyl sulfoxide (Hybri-Max™, sterile-filtered, BioReagent, suitable for hybridoma, ≥99.7%, D2650-5X10ML, Sigma-Aldrich) […]
A - Solubility of the sample is assessed with an aliquot of the material and DMSO prior to sample preparation.
B - 10 ±1 mg of each neat, homogeneous sample are weighed into a labelled 1.5 mL flip-top Eppendorff tube.

[1] = Solubility (method not given); assay type: physicochemical
[2] = Thermodynamic solubility assay (Analiza, LC-QTOFMS); assay type: physicochemical; details: for solubility thermodynamic at 24 h: 24 hour incubation, ambient temperature
Protocol: Thermodynamic solubility assay
Analysis performed at Analiza, Cleveland Ohio.
Apparatus Agilent G6538 QTOF Mass Spectrometer equipped with dual Electrospray Ionization with Mass Hunter data software package Agilent 1290 Infinity II UHPLC system equipped with photodiode array detector, binary pump, vacuum degasser, column heater, thermostat and validated data acquisition software Standard Laboratory equipment (e.g. Pyrex volumetric flasks, graduated cylinders and bottles, sonicator, vortexer, digital timer, calibrated analytical balance, pipettes and tips
Test Compounds: were supplied as dry powder in vials
Consumables: Sodium Chloride (Cat # 21618) was purchased from Affymetrix, Cleveland, OH. HPLC grade water (Cat # EM-WX0004-1), Omnisolv Acetonitrile and (Cat #EM-AX0142-1, DimethylSulfoxide (Cat #D1258) was purchased from Spectrum Chemical, New Brunswick, NJ. DeepWell 96 well plates (Cat #AWLS-219002) were purchased from Arctic White, Bethlehem, PA. Whatman Mini UniPrep syringe-less filter device with […] PTFE filter membrane (Cat #US203NPUORG), Formic Acid (Cat# 0961-100mL) and Round bottom 96 well plates (Cat# 29444-104) were purchased from VWR, Radnor, PA. Benzthiazide (Cat # B7149) and Alprenolol (Cat# A0360000) were purchased from Sigma-Aldrich, St. Louis, MO. Hydrochloric acid,36%, (Cat # 124635000) and Phosphate Buffered Saline, 10X PBS solution, (Cat # BP399-500) were purchased from Fisher Scientific, Fair Lawn, New Jersey.
Preparation of Calibration Standards for LC-MS Analysis:
Separate test compound was weighed into 4mL vials for calibration curves. Samples were received as dry powders in vials containing approximately 5mg of material each. Upon arrival at Analiza the vials were intact.
DimethylSulfoxide (DMSO) was added to each sample such that the final concentration was 10mM and vortexed for 5-10 seconds. After vortexing, all compounds appeared to be fully dissolved. Each test compound was transferred to a polypropylene 96 well plate for robotic preparation of calibration standards.
Each test article DMSO stock solution was serially diluted using a Hamilton STARlet liquid handler with 50-50 LC-MS water 0.1% Formic Acid and LC-MS acetonitrile 0.1% Formic Acid to final concentrations as described below in Table 1 and plated in a polypropylene 96 well plate sealed with foil seal for analysis. A standard calibration curve was prepared for each compound from these dilutions.
Ambient Temperature Test compounds were received as dry powders in vials containing approximately 5mg of material each. Upon arrival at Analiza the vials were intact. Each sample was weighed into a Whatman vial and the appropriate Buffer (450uL) was added to each vial for a dose concentration of approximately 2mg/mL .
Following 24 hour incubation on a rotary shaker (200 RPM) at ambient temperature (22.6-25.0°C), the samples were filtered in a 96 well polypropylene plate. The plate was sealed with a pierceable heat seal and analyzed by […]
Quantitation: 1.) LC-QTOFMS: a. Each sample was weighed into a whatman vial and the appropriate buffer (450uL) was added to each vial for a dose concentration of approximately 2mg/mL incubated for 24 hours and filtered b. The filtrates were assayed undiluted or diluted 100X, 1000X, and/or 10000x with a 50:50 solution of mobile phase and eluted using a fast generic gradient program. c. […] The filtrates were quantified with respect to this calibration curve. […]

rat GnRH receptor = target: rat GnRH receptor; set-up: method as in PMID 19271735; details: concentration to inhibit GnRH binding to the receptor by 50% ref 11; read-out: IC50 (rGnRH); cited from earlier work
human GnRH receptor = target: human GnRH receptor; set-up: method as in PMID 19271735; details: concentration to inhibit GnRH binding to the receptor by 50% ref 11; read-out: IC50 (hGnRH); cited from earlier work
[3] = pH 1.2 (simulated gastric fluid)
[4] = pH 7.4 (phosphate buffered saline)
[5] = calculated from mean IC50 using the Cheng–Prusoff equation, read-out: Ki (hGnRH)
[6] = inhibition of LHRH/GnRH stimulation in cells stably expressing hGnRH receptors, IC50 geometric mean of two experiments, read-out: pIC50 (hGnRH) (converted)

potency to inhibit GnRH receptor (in words) (hGnRH receptors): equally potent as 1
Compound: CC(C)(C)c1ccc(-c2nc3c(N4CCN(Cc5cn(CCF)nn5)CC4)cccc3[nH]2)cc1 [8a]
solubility thermodynamic at 24 h [2, 3]: 2100 µg/mL (≈ 4550 µM)
solubility thermodynamic at 24 h [2, 4]: 3 µg/mL (≈ 6.5 µM)
solubility, times more soluble than 1 ([2]; relative to 1): 1.5 times

Ki (hGnRH receptors; [5]): > 1000 nM
IC50 (hGnRH receptors; [6]): > 10000 nM
Compound: CC(=O)NC1C(O)C(O)C(CO)OC1n1cc(CN2CCN(c3cccc4[nH]c(-c5ccc(C(C)(C)C)cc5)nc34)CC2)nn1 (stereo not shown) [8f]

Ki (hGnRH receptors; [5]): 38 nM
IC50 (hGnRH receptors; [6]): 2000 nM
Compound: Cc1cn(C2CC(n3cc(CN4CCN(c5cccc6[nH]c(-c7ccc(C(C)(C)C)cc7)nc56)CC4)nn3)C(CO)O2)c(=O)[nH]c1=O (stereo not shown) [8g]
solubility thermodynamic at 24 h [2, 3]: 1200 µg/mL (≈ 1880 µM)
solubility thermodynamic at 24 h [2, 4]: < 1 µg/mL

potency to inhibit GnRH receptor (in words) (hGnRH receptors): did not give the desired inhibition
Compound: CC(C)(C)c1ccc(-c2nc3c(N4CCN(Cc5cn(-c6nc7ccccc7[nH]6)nn5)CC4)cccc3[nH]2)cc1 [8h]

potency to inhibit GnRH receptor (in words) (hGnRH receptors): did not give the desired inhibition
Compound: CC(C)(C)c1ccc(-c2nc3c(N4CCN(Cc5cn(-c6ccc(F)cc6)nn5)CC4)cccc3[nH]2)cc1 [8i]

IC50 (hGnRH receptors): > 10000 nM
Ki (hGnRH receptors): > 1000 nM
Compound: CSc1nc(NC(C)C)nc(-n2cc(CN3CCN(c4cccc5[nH]c(-c6ccc(C(C)(C)C)cc6)nc45)CC3)nn2)n1 [8j]

Second part, the compound before the results:

Compound: CC(C)(C)c1ccc(-c2nc3c(N4CCN(CCF)CC4)cccc3[nH]2)cc1 [7a]
potency, fold lower than 1 (hGnRH receptors; relative to 1): 21 fold
solubility [1]: > 0.1 µM

Compound: C#CCN1CCN(c2cccc3[nH]c(-c4ccc(C(C)(C)C)cc4)nc23)CC1 [7b]
solubility [1]: > 0.1 µM

Compound: CC(C)(C)c1ccc(-c2nc3c(N4CCN(Cc5cccc6nccnc56)CC4)cccc3[nH]2)cc1 [compound 1]
IC50 (rat GnRH receptor): 72 nM
IC50 (human GnRH receptor): 12 nM
